Data reported in BindingDB's records for doi:10.1021/acs.jmedchem.3c00250 (n/a, 2023).
pEC50: −log10 of the molar value.

Target: Protein arginine N-methyltransferase 5/MEP50 complex (Homo sapiens)
Test: Inhibition of full-length recombinant PRMT5/full-length recombinant MEP50 (unknown origin) expressed in baculovirus infected Sf21 cells using biotinylated H4R3(Mel) peptide as substrate preincubated for 60 mins followed by substrate addition and measured for 150 minutes in the presence of SAM by methylation assay

pEC50: 9.05
SMILES: CC(=O)N1CCC(Nc2cc(C(=O)N3CC[C@H](N4CCc5ccccc5C4)[C@@H](O)C3)c(F)cn2)CC1
